Drawing on PubChem BioAssay (NCI), this text covers GI50 and TGI for eight molecules.

Test in all cases: NCI tumour cell line growth inhibition, 48 h
The subject of test [1] is SNB-75 CNS.
In test [2] the test system is K-562 leukemia.
The test system of test [3] is SW-620 colon.
The test system of test [4] is CCRF-CEM leukemia.
The test system of test [5] is HCC-2998 colon.
Test [6] deals with IGROV1 ovarian.
The test system of test [7] is HOP-62 NSCLC.
Test [8] relates to HT29 colon.

Each structure is given as a SMILES string.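 Five compound concentrations were applied to cells in 96-well plates for 48 hours; endpoints were derived by simple linear interpolation of the resulting dose-response curve. GI50 is the concentration that inhibits growth by half. TGI is the concentration that stops growth completely.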

Turning to `CC1(C)N=C(N)N=C(N)N1c1ccc(CCCCc2ccccc2)c(Cl)c1`, the GI50 in test [1] was 0.124 µM; in test [2] it was 0.0256 µM; in test [3], less than 0.01 µM; in test [4] it was 0.0374 µM; in test [5], 0.131 µM; in test [6], less than 0.0185 µM. The results for the GI50 in test [7] and in test [8] were 0.0672 µM and less than 0.01 µM, respectively. Moreover, the TGI is 5.87 µM in test [1]; more than 51.2 µM in test [2]; 5.97 µM in test [3]; 14.2 µM in test [4]; 3.52 µM in test [5]; 2.34 µM in test [6]. Moreover, the TGI in test [7] stood at 5.46 µM; in test [8], 1.55 µM.

`C[n+]1c(/C=C/c2c[nH]c3ccccc23)ccc2ccccc21`: the GI50 in test [1] was 14.1 µM; in test [2], 2.32 µM; in test [3], 4 µM; in test [4] it was 5.59 µM; in test [5], 10.5 µM; in test [6] it was 11 µM. In addition, the GI50 was 12.8 µM in test [7] and 5.06 µM in test [8]. For the same molecule, the TGI worked out at 27.4 µM in test [1]; 18.1 µM in test [2]; 19.4 µM in test [3]; 45 µM in test [4]; 23.8 µM in test [5]; 39.4 µM in test [6]. The TGI worked out at 31.8 µM in test [7] and 27.5 µM in test [8].

As for `CC(C)N1CC2CN(Cc3ccccc3)CC(C1)C2=O`, the TGI in test [1], in test [2], in test [3], in test [4], in test [5] and in test [6] was more than 100 µM in each case. In addition, the TGI in test [7] and in test [8] was more than 100 µM in each case.

Turning to `COc1ccc(C(=O)Nc2ncc(Cc3cccc(Cl)c3)s2)cc1OC`, the GI50 in test [1] is 0.405 µM; in test [3], 0.0567 µM; in test [4], 0.626 µM; in test [5] it was 0.134 µM; in test [6] it was 0.525 µM; in test [7], 0.546 µM. For the same molecule, the GI50 in test [8] was 0.148 µM. The TGI in test [2] was more than 100 µM; in test [3], more than 100 µM; in test [4] it was more than 100 µM; in test [5] it was more than 44.1 µM; in test [6] it was more than 100 µM; in test [7], more than 100 µM. This molecule also returned a TGI in test [8] of more than 100 µM.

Consider `Nc1c(C(=O)c2ccc(-c3cccnc3)cc2)cnn1-c1ccc(F)cc1`, for which the GI50 was 11.3 µM in test [1]; more than 25 µM in test [2]; more than 22.4 µM in test [3]; more than 25 µM in test [5]; 24.3 µM in test [6]; more than 18.7 µM in test [7]. Moreover, the GI50 in test [8] is more than 21.6 µM. For the same molecule, the TGI in test [1], in test [2], in test [3], in test [4], in test [5] and in test [6] was more than 25 µM each time. For the same molecule, the TGI in test [7] and in test [8] was more than 25 µM in each case.

Regarding `C[C@]12CC[C@@H]3c4cc(OC(F)F)c(O)cc4CC[C@H]3[C@@H]1CC[C@@H]2OS(N)(=O)=O`, the GI50 in test [1] was 0.23 µM; in test [2], 0.38 µM; in test [3], 0.417 µM; in test [4], 0.393 µM; in test [5], 1.94 µM; in test [6], 0.687 µM. The GI50 in test [7] was 0.693 µM; in test [8], 0.846 µM. Besides, the TGI is 0.945 µM in test [1]; more than 100 µM in test [2]; more than 100 µM in test [3]; more than 100 µM in test [4]; 33.4 µM in test [5]; more than 100 µM in test [6]. The TGI in test [7] came to 35.7 µM; in test [8] it was 17.8 µM.

`CC(C)(C)N1CCC1CN` (centres undefined): the GI50 in test [1], in test [2], in test [3], in test [4], in test [5] and in test [6] was more than 100 µM throughout. The GI50 in test [7] and in test [8] was more than 100 µM throughout. The TGI in test [1], in test [2], in test [3], in test [4], in test [5] and in test [6] was more than 100 µM in each case. For the same molecule, the TGI in test [7] and in test [8] was more than 100 µM each time.

Regarding `O=C1C(Cl)=C(Sc2nnc3c4ccccc4c4ccccc4c3n2)C(=O)c2ccccc21`, the TGI is 8.77 µM in test [1]; more than 59.3 µM in test [2]; more than 65.1 µM in test [3]; 14.5 µM in test [4]; 94.2 µM in test [5]; 21.2 µM in test [6]. In addition, the TGI in test [7] was found to be 32 µM; in test [8] it was 62 µM.
